Tests used:
[1] = Solubility and solution stability of C-005 and its salts; type: physicochemical
[2] = test system: activated form and resistant mutant form of EGFR; conditions: cited from earlier work
WT EGFR = WT EGFR (Homo sapiens, UniProt P00533); conditions: cited from earlier work
WT EGFR, sequence (P00533 25-1210): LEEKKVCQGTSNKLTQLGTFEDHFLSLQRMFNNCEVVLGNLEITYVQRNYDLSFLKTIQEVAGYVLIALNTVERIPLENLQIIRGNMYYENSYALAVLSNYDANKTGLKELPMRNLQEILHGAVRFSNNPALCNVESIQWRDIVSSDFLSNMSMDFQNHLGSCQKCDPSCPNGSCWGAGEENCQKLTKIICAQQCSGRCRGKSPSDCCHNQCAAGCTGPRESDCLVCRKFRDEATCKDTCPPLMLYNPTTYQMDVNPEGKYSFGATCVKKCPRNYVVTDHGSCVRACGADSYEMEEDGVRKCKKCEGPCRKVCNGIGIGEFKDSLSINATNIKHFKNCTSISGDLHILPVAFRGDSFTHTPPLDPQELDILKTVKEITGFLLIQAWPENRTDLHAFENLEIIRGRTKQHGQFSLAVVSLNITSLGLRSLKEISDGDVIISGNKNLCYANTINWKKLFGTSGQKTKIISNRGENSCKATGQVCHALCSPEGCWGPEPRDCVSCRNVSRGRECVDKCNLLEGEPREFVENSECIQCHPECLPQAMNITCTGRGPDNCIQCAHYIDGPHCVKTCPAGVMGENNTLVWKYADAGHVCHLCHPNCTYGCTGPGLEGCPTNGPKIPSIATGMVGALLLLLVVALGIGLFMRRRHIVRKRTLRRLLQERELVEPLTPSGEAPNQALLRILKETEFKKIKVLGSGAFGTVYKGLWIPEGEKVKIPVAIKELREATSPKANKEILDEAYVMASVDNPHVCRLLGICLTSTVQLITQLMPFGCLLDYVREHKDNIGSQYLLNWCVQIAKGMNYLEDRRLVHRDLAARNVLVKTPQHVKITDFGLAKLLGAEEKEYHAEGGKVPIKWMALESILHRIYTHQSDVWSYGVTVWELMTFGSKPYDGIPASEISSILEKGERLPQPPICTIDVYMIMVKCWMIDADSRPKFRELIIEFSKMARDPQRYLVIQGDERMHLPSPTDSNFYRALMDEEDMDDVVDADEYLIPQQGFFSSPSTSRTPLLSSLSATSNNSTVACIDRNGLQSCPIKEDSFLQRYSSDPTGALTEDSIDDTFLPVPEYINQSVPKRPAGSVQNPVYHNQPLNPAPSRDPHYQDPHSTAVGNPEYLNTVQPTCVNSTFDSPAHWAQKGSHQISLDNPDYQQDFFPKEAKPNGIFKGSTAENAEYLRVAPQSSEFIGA

| Solubility in simulated gastric fluid compared to the solubility in aqueous solution ([1]; simulated gastric fluid (pH 1.2) vs aqueous solution (pH 7)) | Time period for which the solution is stable and does not precipitate ([1]; solution of the citrate, once formed) | Solubility compared with C-005 in the free-base form ([1]; under the pH conditions in intestine) | Structure (SMILES) | pH dependence of solubility (and permeability) [1] | Inhibition of activated form and resistant mutant form of EGFR [2] | Inhibitory activity against WT EGFR (WT EGFR) |
| --- | --- | --- | --- | --- | --- | --- |
| approximately 40 times |  |  | C=CC(=O)Nc1cc(Nc2nccc(-c3cn(C)c4cccnc34)n2)c(OC)cc1N(C)CCN(C)C [C-005, N-(2-((2-(dimethylamino)ethyl)(methyl)amino)-4-methoxy-5-((4-(1-methyl-1H-pyrrolo[3,2-b]pyridin-3-yl)pyrimidin-2-yl)amino)phenyl)acrylamide] | significant pH-dependent solubility and permeability | inhibit both activated form and resistant mutant form of EGFR | relatively low inhibitory activity |
|  | at least 24 hours | significantly higher | C=CC(=O)Nc1cc(Nc2nccc(-c3cn(C)c4cccnc34)n2)c(OC)cc1N(C)CCN(C)C.O=C(O)CC(O)(CC(=O)O)C(=O)O [C-005 citrate, N-(2-((2-(dimethylamino)ethyl)(methyl)amino)-4-methoxy-5-((4-(1-methyl-1H-pyrrolo[3,2-b]pyridin-3-yl)pyrimidin-2-yl)amino)phenyl)acrylamide citrate] |  |  |  |

— patent publication US11786527B2, “Pharmaceutical composition and preparation method therefor and uses thereof” (WUXI SHUANGLIANG BIOTECHNOLOGY CO., LTD., priority 2018, dated 2023)
